Data on 27 compounds can be found in patent US20240287080A1 (IDEAYA Biosciences Inc., priority 2021, published 2024).

Where only a bound is given, the exact number is not on record here.

For one experiment, the target named is T1, Pol theta (1-899) (Homo sapiens, UniProt O75417).
T1 construct: Pol theta (1-899) (5 nM) in assay buffer
T1 sequence (O75417 1-899): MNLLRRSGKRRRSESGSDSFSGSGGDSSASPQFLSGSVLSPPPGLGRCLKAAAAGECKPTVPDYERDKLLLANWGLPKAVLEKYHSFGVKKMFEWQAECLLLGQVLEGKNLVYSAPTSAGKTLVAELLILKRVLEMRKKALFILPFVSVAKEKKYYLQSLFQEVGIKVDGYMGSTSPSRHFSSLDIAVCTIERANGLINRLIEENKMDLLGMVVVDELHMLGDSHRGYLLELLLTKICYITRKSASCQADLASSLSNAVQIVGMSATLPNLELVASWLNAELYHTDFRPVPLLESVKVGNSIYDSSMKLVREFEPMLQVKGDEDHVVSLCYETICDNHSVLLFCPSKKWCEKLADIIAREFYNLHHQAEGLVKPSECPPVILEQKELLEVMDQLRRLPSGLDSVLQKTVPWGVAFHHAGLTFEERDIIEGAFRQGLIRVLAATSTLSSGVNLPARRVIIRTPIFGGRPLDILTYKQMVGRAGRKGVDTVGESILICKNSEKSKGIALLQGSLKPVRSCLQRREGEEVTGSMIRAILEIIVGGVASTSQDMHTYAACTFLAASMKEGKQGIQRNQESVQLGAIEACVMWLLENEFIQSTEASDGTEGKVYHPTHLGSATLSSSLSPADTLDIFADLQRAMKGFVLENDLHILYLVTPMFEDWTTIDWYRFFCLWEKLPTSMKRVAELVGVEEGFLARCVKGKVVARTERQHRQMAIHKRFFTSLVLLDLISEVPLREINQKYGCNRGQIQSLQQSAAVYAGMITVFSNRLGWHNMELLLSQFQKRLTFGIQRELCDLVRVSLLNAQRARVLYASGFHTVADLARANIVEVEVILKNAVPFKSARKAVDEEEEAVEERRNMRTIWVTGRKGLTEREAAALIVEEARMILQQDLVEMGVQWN
The experiment can be described thus: Pol theta ATPase activity, NADH oxidation-coupled enzymatic assay (ATPase NADH coupling: Standard Screening: hPolQ). The format is biochemical. Conditions: Pol theta (1-899) 5 nM, NADH oxidation-coupled ATPase assay; compounds of Table 3. The method, boiled down: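 NADH-coupled ATPase readout: 5 nM Pol theta (1-899) preincubated 15 min with 10-point compound series in Tris pH 7.80, KCl, MgCl2, DTT, BSA, Tween, glycerol, then 100 μM ATP, 300 nM 50-mer poly-dT ssDNA, NADH, PEP, LDH and PK added (stock levels). A340 followed 60 min; slopes fit four-parameter for IC50.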
For orientation: IC50 means the concentration needed to halve the response being measured. For `COc1nnc(NC(=O)c2cnc(C)cc2-c2cnc(C#N)cc2C)s1` [Example 413, 6-cyano-N-(5-methoxy-1,3,4-thiadiazol-2-yl)-4,6′-dimethyl-[3,4′-bipyridine]-3′-carboxamide], the IC50 was in the range of 1000 to 10000 nM.

For `COc1nnc(NC(=O)c2cnc(C)cc2-c2cnn(-c3ccccc3)c2)s1` [Example 460, N-(5-methoxy-1,3,4-thiadiazol-2-yl)-6-methyl-4-(1-phenyl-1H-pyrazol-4-yl)nicotinamide], the half-maximal inhibitory concentration (IC50) lay within 1000 to 10000 nM.

`CCCCc1ccc(-c2cc(C)ncc2C(=O)Nc2nnc(OC)s2)cc1` [Example 484, 4-(4-butylphenyl)-N-(5-methoxy-1,3,4-thiadiazol-2-yl)-6-methylpyridine-3-carboxamide]: the 50% inhibitory concentration (IC50) lay in the range of 1000 to 10000 nM.

For `COc1nnc(NC(=O)c2cnc(C)cc2-c2ccc3c(c2)OCO3)s1` [Example 409, 4-(2H-1,3-benzodioxol-5-yl)-N-(5-methoxy-1,3,4-thiadiazol-2-yl)-6-methylpyridine-3-carboxamide], the IC50 fell in the range of 500 to 1000 nM.

Compound `COc1cnc(Br)cc1-c1cc(C)ncc1C(=O)Nc1nnc(O[C@H]2CCC[C@@H](O)C2)s1` (single isomer, unassigned) [Example 244] yielded an IC50 of at most 200 nM.

`COc1nnc(NC(=O)c2cnc(C)cc2-c2cccc3cnccc23)s1` [Example 372, 4-(isoquinolin-5-yl)-N-(5-methoxy-1,3,4-thiadiazol-2-yl)-6-methylpyridine-3-carboxamide]: the half-maximal inhibitory concentration (IC50) was in the range of 200 to 500 nM.

In turn, `Cc1cc(-c2cc(Cl)ncc2OC(F)F)c(C(=O)Nc2nnc(O[C@@H]3CCC[C@H](O)C3)s2)cn1` (single isomer, unassigned) [Example 252] gave a concentration for half-maximal inhibition (IC50) of at most 200 nM.

Compound `COc1nnc(NC(=O)c2cnc(C)cc2-c2ccc3[nH]ncc3c2)s1` [Example 487, 4-(1H-indazol-5-yl)-N-(5-methoxy-1,3,4-thiadiazol-2-yl)-6-methylnicotin amide] registered a 50% inhibitory concentration (IC50) of 500 to 1000 nM.

As for `COc1nnc(NC(=O)c2cnc(C)cc2-c2cc(C#N)cc(OC(F)(F)F)c2)s1` [Example 327, 4-[3-cyano-5-(trifluoromethoxy)phenyl]-N-(5-methoxy-1,3,4-thiadiazol-2-yl)-6-methylpyridine-3-carboxamide], the concentration for half-maximal inhibition (IC50) was 1000 to 10000 nM.

`COc1nnc(NC(=O)c2cnc(C)cc2-c2ccc(S(C)(=O)=O)cc2)s1` [Example 371, N-(5-methoxy-1,3,4-thiadiazol-2-yl)-6-methyl-4-(4-(methylsulfonyl)phenyl)nicotinamide] returned a concentration for half-maximal inhibition (IC50) of 1000 to 10000 nM.

Consider `COc1nnc(NC(=O)c2cnc(C)cc2-c2cnc(C(F)(F)F)cc2C)s1` [Example 424, N-(5-methoxy-1,3,4-thiadiazol-2-yl)-4,6′-dimethyl-6-(trifluoromethyl)-[3,4′-bipyridine]-3′-carboxamide], for which the half-maximal inhibitory concentration (IC50) lay in the range of 1000 to 10000 nM.

As for `COc1nnc(NC(=O)c2cnc(C)cc2-c2ccsc2)s1` [Example 388, N-(5-methoxy-1,3,4-thiadiazol-2-yl)-6-methyl-4-(thiophen-3-yl)nicotinamide], the half-maximal inhibitory concentration (IC50) lay within 1000 to 10000 nM.

The compound `COc1nnc(NC(=O)c2cnc(C)cc2-c2cncc(C#N)c2)s1` [Example 334, 5-cyano-N-(5-methoxy-1,3,4-thiadiazol-2-yl)-6′-methyl-[3,4′-bipyridine]-3′-carboxamide] gave an IC50 of 1000 to 10000 nM.

As to `COc1nnc(NC(=O)c2cnc(C)cc2-c2cc(C)cc(F)c2)s1` [Example 405, 4-(3-fluoro-5-methylphenyl)-N-(5-methoxy-1,3,4-thiadiazol-2-yl)-6-methylpyridine-3-carboxamide], the IC50 was in the range of 200 to 500 nM.

The compound `COc1nnc(NC(=O)c2cnc(C)cc2-c2ccc3[nH]ccc3c2)s1` [Example 352, 4-(1H-indol-5-yl)-N-(5-methoxy-1,3,4-thiadiazol-2-yl)-6-methylpyridine-3-carboxamide] displayed an IC50 of 1000 to 10000 nM.

Compound `COc1cnc(Cl)cc1-c1cc(C)ncc1C(=O)Nc1nnc(O[C@H]2CCCN(C3CCOC3)C2)s1` (stereo in doubt) [Example 310, 2′-chloro-5′-methoxy-6-methyl-N-(5-(((S)-1-((S)-tetrahydrofuran-3-yl)piperidin-3-yl)oxy)-1,3,4-thiadiazol-2-yl)-[4,4′-bipyridine]-3-carboxamide] registered a half-inhibitory concentration (IC50) of at most 200 nM.

For the compound `COc1nnc(NC(=O)c2cnc(C)cc2-c2cc(F)cc(C#N)c2)s1` [Example 439, 4-(3-cyano-5-fluorophenyl)-N-(5-methoxy-1,3,4-thiadiazol-2-yl)-6-methylpyridine-3-carboxamide], the IC50 was 500 to 1000 nM.

The same experiment, now with this note: Table 4; Pol theta (1-899) 5 nM, ATP, dT50 ssDNA.
Turning to `COc1cnc(Cl)cc1-c1cc(C)ncc1C(=O)Nc1nnc(O[C@H]2CC[C@H](O)C2)s1` [Example 45, 2′-chloro-N-(5-(((1s,3s)-3-hydroxycyclopentyl)oxy)-1,3,4-thiadiazol-2-yl)-5′-methoxy-6-methyl-(4,4′-bipyridine)-3-carboxamide], the IC50 was at most 200 nM.

As to `COc1nnc(NC(=O)c2cnc(C)cc2-c2cc(C(F)(F)F)ncc2OC)s1` [Example 57, 5′-methoxy-N-(5-methoxy-1,3,4-thiadiazol-2-yl)-6-methyl-2′-(trifluoromethyl)-(4,4′-bipyridine)-3-carboxamide], the 50% inhibitory concentration (IC50) was at most 200 nM.

Consider `C#CCOc1nnc(NC(=O)c2ccncc2-c2ccccc2OC)s1` [Example 1, 3-(2-methoxyphenyl)-N-(5-(prop-2-yn-1-yloxy)-1,3,4-thiadiazol-2-yl)isonicotinamide], for which the concentration for half-maximal inhibition (IC50) was at most 200 nM.

The experiment is the same for the next values; noted with them: Table 5; Pol theta (1-899) 5 nM, ATP, dT50 ssDNA.
The compound `COc1cnc(Br)cc1-c1cc(C)ncc1C(=O)Nc1nnc(O[C@@H]2COC3(CC3)C2)s1` (single isomer, unassigned) [Example 226] came in with an IC50 of at most 200 nM.

As for `COc1cnc(Cl)cc1-c1cc(C)ncc1C(=O)Nc1nnc(OC2CCC3(CCCO3)CC2)s1` (single isomer, unassigned) [Example 174, N-(5-(((5r,8s)-1-oxaspiro(4.5)decan-8-yl)oxy)-1,3,4-thiadiazol-2-yl)-2′-chloro-5′-methoxy-6-methyl-(4,4′-bipyridine)-3-carboxamide], the half-inhibitory concentration (IC50) was at most 200 nM.

Compound `COc1cnc(Cl)cc1-c1cc(C)ncc1C(=O)Nc1nnc(O[C@@H]2CCC[C@@](C)(O)C2)s1` (single isomer, unassigned) [Example 182] had an IC50 of at most 200 nM.

Compound `COc1cnc(C)c(F)c1-c1cc(C)ncc1C(=O)Nc1nnc(O[C@H]2C[C@@H]3CC[C@H]2O3)s1` (single isomer, unassigned) [Example 219] showed a concentration for half-maximal inhibition (IC50) of at most 200 nM.

Turning to `COc1cnc(Cl)cc1-c1cc(C)ncc1C(=O)Nc1nnc(O[C@H]2CCC[C@@H](OC)C2)s1` (single isomer, unassigned) [Example 145], the IC50 is at most 200 nM.

`COc1cnc(Br)cc1-c1cc(C)ncc1C(=O)Nc1nnc(O[C@H]2CCOC2)s1` [Example 122, (S)-2′-bromo-5′-methoxy-6-methyl-N-(5-((tetrahydrofuran-3-yl)oxy)-1,3,4-thiadiazol-2-yl)-(4,4′-bipyridine)-3-carboxamide] had an IC50 of at most 200 nM.

The compound `COc1cnc(Cl)c(F)c1-c1cc(C)ncc1C(=O)Nc1nnc(O[C@H]2CC[C@H](O)CC2)s1` [Example 211, 2′-chloro-3′-fluoro-N-(5-(((1r,4r)-4-hydroxycyclohexyl)oxy)-1,3,4-thiadiazol-2-yl)-5′-methoxy-6-methyl-(4,4′-bipyridine)-3-carboxamide] had an IC50 of at most 200 nM.
